Assay results from PubChem BioAssay (NCI).
Several values for one entry are separate records, joined by “and”; a condition that tells them apart may be missing. Identical values can stand only once.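 Compound exposure: 48 hours, 5 concentrations, 96-well plates. GI50: concentration for 50% inhibition of growth. Definition used: TGI = concentration required for complete inhibition of growth.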

Key:
Test in all cases: growth of human tumour cells (NCI), 48 h
OVCAR-8 ovarian = system: OVCAR-8 ovarian
SK-OV-3 ovarian = system: SK-OV-3 ovarian
HS 578T breast = system: HS 578T breast
BT-549 breast = system: BT-549 breast
OVCAR-3 ovarian = system: OVCAR-3 ovarian
UO-31 renal = system: UO-31 renal
COLO 205 colon = system: COLO 205 colon
HCT-116 colon = system: HCT-116 colon
NCI-H226 lung = system: NCI-H226 lung
HOP-62 NSCLC = system: HOP-62 NSCLC

Row | Compound | GI50 (OVCAR-8 ovarian) [µM] | TGI (OVCAR-8 ovarian) [µM] | GI50 (SK-OV-3 ovarian) [µM] | TGI (SK-OV-3 ovarian) [µM] | GI50 (HS 578T breast) [µM] | TGI (HS 578T breast) [µM] | GI50 (BT-549 breast) [µM] | TGI (BT-549 breast) [µM] | GI50 (OVCAR-3 ovarian) [µM] | TGI (OVCAR-3 ovarian) [µM] | GI50 (UO-31 renal) [µM] | TGI (UO-31 renal) [µM] | GI50 (COLO 205 colon) | TGI (COLO 205 colon) | GI50 (HCT-116 colon) [µM] | TGI (HCT-116 colon) [µM] | GI50 (NCI-H226 lung) [µM] | TGI (NCI-H226 lung) [µM] | GI50 (HOP-62 NSCLC) | TGI (HOP-62 NSCLC) [µM]
1 | Cc1cc(I)cc(CN(C)CCCN2CCOCC2)c1O | > 100 | > 100 | 82.9 | > 100 | 13.5 | > 100 | 13.9 | 85.5 | > 100 | > 100 | 22.1 | 94.4 | 14.1 µM | 29 µM | 24 | > 100 | 99.9 | > 100 | 38.6 µM | > 100
2 | CCn1c(CO)nn(-c2cc(O[C@@H](C)C(F)(F)F)c(C(=O)Nc3c(F)cccc3Cl)cc2F)c1=O | < 0.01 | > 100 | 3.05 | > 100 | > 22.3 | > 100 | – | > 100 | 0.0304 | > 100 | 1.02 | > 100 | < 0.01 µM | > 100 µM | < 0.01 | > 100 | – | > 100 | < 0.0255 µM | > 100
3 | CC(C)CNC(=O)O | – | > 100 | – | > 100 | – | > 100 | – | > 100 | – | > 100 | – | > 100 | – | > 100 µM | – | > 100 | – | > 100 | – | > 100
4 | [Au+].[Au+].[Au+].[c-]1nccn1Cc1ccccc1.[c-]1nccn1Cc1ccccc1.[c-]1nccn1Cc1ccccc1 | 5.06 | > 42.6 | 19.4 | 36.8 | 19.8 | 64 | 5.35 | 42.5 | 2.33 | 5.27 | 15 | 28.4 | 1.74 µM | 3.16 µM | 6.68 | 18.6 | 14.6 | 71.4 | 5.99 µM | 28.5
5 | C[C@]12CC[C@@H]3c4ccc(O)cc4CC[C@H]3[C@@H]1CC[C@@H]2NS(=O)(=O)c1cccc(F)c1 | 3.84 | 15.8 | 6.12 | 18.2 | 3.88 | 19.1 | 2.82 | 8.46 | – | – | 2.04 | 10.3 | 1.85 µM | 3.61 µM | 2.63 | 7.33 | 3.72 | 16.7 | 7.38 µM | 21.9
6 | COc1ccc2c(O)cc3c(c2c1)[C@H](CCl)CN3C(=O)c1cc2cc(NC(=O)CCN3CCOCC3)ccc2[se]1 | < 0.001 | 0.0843 | < 0.001 | – | – | – | 0.00104 | 0.00649 | < 0.001 | > 10 | < 0.001 | < 0.001 | < 0.001 µM | > 10 µM | < 0.001 | > 3.25 | < 0.001 | 0.00163 | < 0.001 µM | 2.03
7 | Nc1nc(SN=Nc2ccc(S(N)(=O)=O)cc2)c2[nH]cnc2n1 | 0.419 | > 100 | 0.39 | 13.6 | 1.81 | > 50.2 | 1.15 | > 100 | 0.511 | 7.93 | 0.455 | > 100 | 1.42 µM | 3.6 µM | 0.374 | 15.1 | 0.867 | > 100 | 0.62 µM | > 100
8 | O=C(Nc1ccc(CO)cc1)c1coc2ccccc2c1=O | > 100 | > 100 | > 100 | > 100 | 16.2 | 78.1 | 90.7 | > 100 | > 100 | > 100 | > 100 | > 100 | > 100 µM | > 100 µM | > 100 | > 100 | > 100 | > 100 | > 100 µM | > 100
9 | COc1ccc(OC)c2c(/C=C/c3ccc(N(C)C)cc3)ccnc12 | – | > 10 | – | > 10 | – | > 10 | – | > 10 | – | > 10 | – | > 10 | – | > 10 µM | – | 8.11 | – | > 10 | – | > 10
10 | O=C(Nc1ccc(-n2cc(-c3ccncc3)c(-c3ccc(Cl)c(O)c3)n2)cc1)Nc1ccc(Cl)c(C(F)(F)F)c1 | 1.77 | 4.8 | 2.02 | 4.69 | 1.39 | 4.43 | 1.2 | 2.79 | 1.48 | 3.11 | 1.66 | 3.6 | 1.68 µM | 3.7 µM | 1.29 | 2.72 | 2.76 | 10.8 | 1.68 µM | 3.18
11 | Cc1cc(S(=O)(=O)N/N=C(\Sc2cc(Cl)c(C)cc2S(N)(=O)=O)c2ccc(Cl)cc2)c(Cl)cc1Cl | > 100 | > 100 | > 100 | > 100 | > 100 | > 100 | 61.8 | > 100 | 31.1 | > 100 | 57.1 | > 100 | > 100 µM | > 100 µM | 79.4 | > 100 | 58.3 | > 100 | > 100 µM | > 100
12 | COc1ccc2[nH]c3c4c(ccc3c2c1)C(=O)C=CC4=O | – | 12.4 | – | > 100 | – | 71.5 | – | 84.9 | – | 20.8 | – | 28.2 | – | 15.6 µM | – | 13.9 | – | 49.9 | – | > 94.4
13 | C=CCSS/C=C/CS(=O)CC=C (centres undefined) | – | 37.1 | – | > 100 | – | > 77.4 | – | > 56.7 | – | > 95.9 | – | > 100 | – | 66.5 µM | – | 27.3 | – | > 100 | – | > 100
14 | COc1ccc(-c2ccc(/C=N/n3c(C)n[nH]c3=S)o2)c([N+](=O)[O-])c1 | 84 | > 100 | > 100 | > 100 | > 100 | > 100 | > 100 | > 100 | > 100 | > 100 | > 100 | > 100 | > 100 µM | > 100 µM | > 100 | > 100 | – | – | 46 µM | > 100
15 | O=C(CSC(c1ccccc1)c1ccccc1)N/N=C/c1ccc(Cl)cc1Cl | 37.9 | > 100 | – | – | 34.8 | > 100 | 30 | 75.8 | 29.2 | 83 | 18.8 | 68 | – | – | 18.5 | 44.4 | 32.6 | > 100 | 42.3 µM | > 100
16 | Cc1cc(N/N=C/c2nc(-c3ccc(Br)cc3)oc2C)c2cc(Br)ccc2n1 | 2.43 | 6.66 | 16.6 | 30.2 | 4.21 | 26.2 | 10.7 | 23.3 | 2.08 | 4.25 | 13.9 | 26.8 | 4.38 µM | 22.1 µM | 3.52 | 12.2 | 17.9 | 48.5 | 2.32 µM | 5.84
17 | COc1cc2c(cc1O)C1Cc3ccc(OC)c(O)c3C(C2)N1C (centres undefined) | – | > 100 | – | > 100 | – | > 100 | – | > 100 | – | > 100 | – | > 100 | – | > 100 µM | – | > 100 | – | > 100 | – | > 100
18 | Cc1cc(C2CC(O)C(CO)O2)cc2c(=O)[nH]c(N)nc12 (centres undefined) | > 100 | > 100 | > 100 | > 100 | > 100 | > 100 | > 100 | > 100 | > 100 | > 100 | > 100 | > 100 | > 100 µM | > 100 µM | > 100 | > 100 | > 100 | > 100 | > 100 µM | > 100
19 | O=c1[nH]cnc2cccc(Cl)c12 | – | > 100 | – | > 100 | – | > 100 | – | > 100 | – | > 100 | – | > 100 | – | > 100 µM | – | > 100 | – | > 100 | – | > 100
20 | CC(C)OC(=O)NNc1cc(Cl)ccc1Cl | – | > 100 | – | > 100 | – | > 100 | – | > 100 | – | > 100 | – | > 100 | – | > 100 µM | – | > 100 | – | – | – | > 100
21 | CC(=O)/C=C/c1ccc(C#Cc2ccccc2)s1 | 19 | 57.3 | 17.3 | 31.1 | 23.9 | 56.3 | 13.5 | 28 | 15.5 | 29.6 | 14.3 | 27.3 | 16.9 µM | 31 µM | 3.67 | 14.9 | 18.4 | 36.4 | 19.7 µM | 33.8
22 | NC(CS/C(Cl)=C/Cl)C(=O)O (centres undefined) | 24.1 | > 100 | > 100 | > 100 | 55.1 | > 100 | 12.1 | > 64.1 | 49.2 | > 100 | 54.8 | > 100 | 26.6 µM | > 69.7 µM | 34.6 | > 100 | > 100 | > 100 | 4.64 µM | 29.3
23 | O=C(/C=C/c1cc(CN2CCOCC2)c(O)c2ncccc12)c1cc(CN2CCOCC2)c(O)c2ncccc12 | 0.0359 | > 100 | 0.0348 | 0.357 | 0.0713 | > 100 | 0.0287 | 16.9 | 0.0535 | > 100 | 0.0408 | > 100 | 0.0842 µM | > 100 µM | 0.0245 | > 100 | 0.43 | 41.8 | 0.0335 µM | > 39
24 | CC(C)S(=O)(=O)c1ccccc1Nc1nc(Nc2cccc(NC(=O)CN)c2)ncc1Cl | 0.286 | 6.97 | 1.11 | 8.57 | 0.161 | 1.11 | 0.149 | 1 | 0.158 | 3.75 | 0.176 | 4.08 | 0.0319 µM | 0.223 µM | 0.0403 | 0.696 | 0.113 | 1.98 | 0.112 µM | 6.13
25 | COc1cc2ncn(-c3cc(OCCc4ccccc4)c(C(N)=O)s3)c2cc1OC | > 25 | > 25 | > 25 | > 25 | > 16.1 | > 25 | > 25 | > 25 | > 25 | > 25 | 8.16 | > 25 | 24.4 µM | > 25 µM | 24.6 | > 25 | > 25 | > 25 | > 25 µM | > 25
26 | Cc1c(C2=C(Br)C(=O)N(C)C2=O)c(=O)n(C)c(=O)n1C | – | > 100 | – | > 100 | – | > 100 | – | 51.1 | – | > 100 | – | 33.3 | – | 34.5 µM | – | 40.9 | – | > 100 | – | > 100
27 | COc1ccc(C(=O)COc2cccc(/C=C3\Oc4ccc5ccccc5c4C3=O)c2)cc1 | 4.57 | 14.9 | – | – | 5.39 | 25.8 | 2.45 | 10.3 | 1.78 | 3.54 | 6.42 | 23.2 | 2.45 µM | 6.94 µM | 2.31 | 4.94 | 6.58 | 22.4 | 14.9 µM | 28.1
28 | N#C/C(=C/N1CCN(C(=O)c2ccco2)C1=S)C(=O)c1ccccc1 | 25.4 | > 100 | 37.4 | > 100 | – | – | 7.77 | 32.3 | 18.2 | 57.2 | 10.2 | 32.5 | 23.2 µM | > 100 µM | 9.12 | 57 | – | – | 22 µM | 47
29 | CC(C)N=c1cc2n(-c3ccc(Cl)cc3)c3ccccc3nc-2cc1Nc1ccc(Cl)cc1 | 2.79 | > 100 | 2.15 | > 50 | – | – | 1.47 | > 50 | 1.21 | 2.76 | – | – | 1.17 µM and 1.41 µM | 4.21 µM and 5.03 µM | – | – | 1.43 | > 50 | 4.71 µM and 4.81 µM | > 100
